ChEMBL document CHEMBL3734655, “Identification of camphor derivatives as novel M2 ion channel inhibitors of influenza A virus” (Medchemcomm, 2015)
Activity calls are given as the source filed them. The rule behind the calls is not given here.

What was measured:
[1] = Cytotoxicity against MDCK cells incubated for 72 hrs by CCK-8 assay; assay type: cell-based, Canis lupus familiaris; settings: dog
[2] = tested on: Influenza A virus H3N2; assay: Antiviral activity against wild type M2 ion channel expressing Influenza A virus (A/Hong Kong/1968(H3N2)) infected in MDCK cells preincubated for 30 mins followed by viral infection measured after 72 hrs by CCK-8 assay; assay type: functional, organism-based; settings: A/Hong Kong/1968, MDCK
[3] = tested on: Influenza A virus H3N2; assay: Antiviral activity against wild type Influenza A virus (A/Hong Kong/1968(H3N2)) infected in MDCK cells assessed as reduction in size and number of plaque at 0.2 uM after 2 to 3 days by crystal violet staining based assay; assay type: functional, organism-based
[4] = tested on: Influenza A virus H3N2; assay: Potency index, ratio of amantadine IC50 to compound IC50 for wild type M2 ion channel expressing Influenza A virus (A/Hong Kong/1968(H3N2)) infected in MDCK cells; assay type: functional
[5] = tested on: Influenza A virus H3N2; assay: Antiviral activity against wild type Influenza A virus (A/Hong Kong/1968(H3N2)) infected in MDCK cells assessed as reduction in size and number of plaque at 1 uM after 2 to 3 days by crystal violet staining based assay; assay type: functional, organism-based

SMILES	MCC at 72 h [1] [µM]	IC50 [2] [nM]	Activity [3]	Ratio IC50 [4]	Activity [5]
CC1(C)[C@@H]2CC[C@@]1(C)[C@@H](N)C2 (relative stereo)	> 300	490	–	–	–
NC12CC3CC(CC(C3)C1)C2 [AMANTADINE]	–	500	–	–	–
CC1(C)[C@H]2CC[C@](C)(C2)[C@H]1CN	> 300	15700	–	–	–
N[C@H]1C[C@@H]2CC[C@H]1C2	> 300	12400	–	–	–
C[C@H]1[C@H](CN)C[C@@H]2C[C@H]1C2(C)C	> 300	2470	–	–	–
C[C@H]1[C@H]([C@H](C)N)C[C@@H]2C[C@H]1C2(C)C	> 300	1930	–	–	–
NC1CC2CCC1C2 (configuration not stated)	> 300	17400	–	–	–
C[C@H]1[C@H](N)C[C@@H]2C[C@H]1C2(C)C	> 300	120	–	–	–
C[C@@H](N)[C@H]1C[C@H]2CC[C@]1(C)C2(C)C.Cl	> 300	100	Active	5	Active
CC1(C)[C@@H]2CC[C@@]1(C)[C@@H](CN)C2	> 300	290	–	–	–
